Test results: paper PMC9949698, “Visible-Light-Controlled Histone Deacetylase Inhibitors for Targeted Cancer Therapy” (Journal of Medicinal Chemistry, 2023)
Where two headings read alike, the source gives them in different places.

Assays:
[1] = UV–vis spectra and optimal isomerization wavelengths; assay type: physicochemical; details: for λcis (optimal wavelength trans to cis) / λtrans (optimal wavelength cis to trans): UV–vis at 25–50 μM in DMSO, Teleopto plates (Table 1)
Experimental: Ultraviolet–visible (UV–vis) spectra were recorded using a Tecan Spark 20M Multimode Microplate reader. Samples (200 μL of compound solution/well) were prepared at […] in DMSO. Samples were measured between 300 and 800 nm with 2 nm fixed intervals in 96-well transparent plates. Illumination at different wavelengths was performed for 2 min using 96-well LED array plates (LEDA Teleopto) placed below the samples. […] Potencies were measured using a Thorlabs PM100D power energy meter connected with a standard photodiode power sensor (S120VC).

[2] = target: T1, human recombinant HDAC1 (Homo sapiens, UniProt Q13547); test: Fluorogenic assay with human recombinant HDAC1, dark or illumination; assay type: biochemical; details: for relative activity of cis and trans forms: dark vs light, in words
T1 construct: purchased BPS Bioscience
Experimental: To study the inhibition of HDAC enzymes by the compounds, we used a fluorogenic assay with human recombinant HDAC1.[32] The enzyme was incubated with an acetylated substrate and each inhibitor for 1 h at room temperature, under either dark or light conditions. We opted for illumination throughout the incubation period to maintain the maximum proportion of cis under light conditions. […] Then, the deacetylated substrate generated a fluorescent coumarin after incubation of the mixture with trypsin at 37 °C for 20 min.
Stock solutions of the compounds were diluted to 1 mM in DMSO and then heated to 60 or 80 °C to obtain solutions with the maximum amount of the trans isomer (dark). […] The 1 mM solutions were then serially diluted with HDAC buffer to 10 times the desired concentration, maintaining DMSO at 10%.
In control wells without the compound, inhibitor, or enzyme, HDAC buffer was added instead. […] Then, 50 μL of the stop solution was added and the plates were incubated at 37 °C for 20 min in the dark. Fluorescence was measured at a λem of 460 nm and a λex of 380 nm. Enzyme activity is expressed as a percentage with respect to the nontreated cells, after subtracting the blank (well with no enzyme and no compound).

[3] = test system: HeLa cells; test: HeLa cell viability, MTS assay, dark or preillumination; assay type: cell-based; details: for IC50: Homo sapiens, HeLa; for IC50(dark)/IC50(light): Table 5; for activity under dark and illumination conditions: in words
Experimental: We then proceeded to evaluate the effect of the compounds in a viability assay against HeLa cells.
HeLa, MCF7, and HT29 cells were maintained in adherent cultures in DMEM supplemented with 10% FBS. KG1 cells were maintained in a suspension culture in IMDM supplemented with 20% FBS.
Stock solutions of the compounds were heated to 60 or 80 °C to obtain solutions with the maximum amount of the trans isomer (dark). […] The solutions were then serially diluted with DMEM to give 20 times the desired final concentration, maintaining DMSO at 10%.
Cells were seeded in 96-well black flat bottom plates with a clear bottom at a density of 5 × 10^3 cells/well (HeLa) or 1 × 10^4 cells/well (MCF7, HT29, and KG1), in a volume of 95 μL.
Viability of HeLa, MCF7, and […] cells was determined with a CellTiter 96 assay (Promega), according to the manufacturer’s instructions. Briefly, 20 μL of CellTiter 96 reagent was added to each well, the plates were incubated at 37 °C for 2 h, and the absorbance at 490 nm was recorded. Viability is expressed as a percentage with respect to the nontreated cells.

[4] = E/Z composition under light or temperature conditions by HPLC; assay type: physicochemical
[5] = UV–vis spectra at 25–50 μM in DMSO (Table 1)
[6] = dark vs 365 or 380 nm (Table 2), fold
[7] = dark, 1 h at room temperature (Table 2), read-out: IC50 dark
[8] = illumination 365 or 380 nm, 1 h at room temperature (Table 2), read-out: IC50 light
[9] = dark, 48 h, read-out: IC50 dark (concentration that reduces cell viability by half)
[10] = preillumination 380 nm, 48 h, read-out: IC50 light (concentration that reduces cell viability by half)
[11] = supplementary CSV, read-out: HeLa MTS IC50 light
[12] = HPLC at isosbestic point (310–338 nm), 100 μM in DMSO after illumination with λcis (Table 1)
[13] = HPLC at isosbestic point (310–338 nm), 100 μM in DMSO after illumination with λtrans (Table 1)
[14] = continuous illumination 550 nm (Table 4), read-out: IC50 light
[15] = supplementary CSV, read-out: HDAC1 IC50 light
[16] = UV–vis spectra at 25–100 μM in DMSO (Table 3)
[17] = HPLC at isosbestic point (290–336 nm), 100 μM in DMSO after illumination with λcis (Table 3)
[18] = HPLC at isosbestic point (290–336 nm), 100 μM in DMSO after illumination with λtrans (Table 3)
[19] = dark (Table 4), read-out: IC50 dark
[20] = supplementary CSV, read-out: HDAC1 IC50 dark

T1 sequence (Q13547 whole entry): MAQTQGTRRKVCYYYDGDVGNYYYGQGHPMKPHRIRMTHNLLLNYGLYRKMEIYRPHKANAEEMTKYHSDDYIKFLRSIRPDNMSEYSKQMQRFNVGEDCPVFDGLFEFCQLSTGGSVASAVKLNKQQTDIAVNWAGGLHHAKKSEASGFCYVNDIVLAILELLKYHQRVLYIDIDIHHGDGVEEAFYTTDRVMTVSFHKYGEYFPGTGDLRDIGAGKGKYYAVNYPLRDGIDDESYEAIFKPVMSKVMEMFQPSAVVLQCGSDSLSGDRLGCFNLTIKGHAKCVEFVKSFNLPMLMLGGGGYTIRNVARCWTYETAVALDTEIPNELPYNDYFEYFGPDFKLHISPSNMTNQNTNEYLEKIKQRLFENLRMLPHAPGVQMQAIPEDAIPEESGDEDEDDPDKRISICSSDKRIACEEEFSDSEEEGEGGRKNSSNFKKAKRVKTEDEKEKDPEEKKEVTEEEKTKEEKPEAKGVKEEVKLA

λcis (optimal wavelength trans to cis) [1]	λmax trans [1, 5]	λcis [1, 16]	λmax cis [1, 16]	λmax trans [1, 16]	λtrans [1, 16]	% cis at λcis [4, 17]	% trans at λtrans [4, 18]	IC50(dark)/IC50(light) ([2]; Table 4)	IC50 [2, 19]	SMILES	other results
		550 nm	452 nm	338 nm	455 nm	45%	88%			COc1cc(Cl)c(/N=N/c2c(Cl)cc(/C=C/C(=O)Nc3ccccc3N)cc2Cl)c(Cl)c1 [Compound 32b, (E)-N-(2-Aminophenyl)-3-(3,5-dichloro-4-((E)-(2,6-dichloro-4-methoxyphenyl)diazenyl)phenyl)acrylamide]	IC50 [2, 14]: ~10 µM; IC50 [2, 15]: 10 µM
		380 nm	448 nm	388 nm	550 nm	67%	59%	≈22	~10 µM	COc1ccc(/N=N/c2ccc(/C=C/C(=O)Nc3ccccc3N)cc2F)c(F)c1 [Compound 32d, (E)-N-(2-Aminophenyl)-3-(3-fluoro-4-((E)-(2-fluoro-4-methoxyphenyl)diazenyl)phenyl)acrylamide]	IC50 [2, 20]: 10 µM
		380 nm	464 nm	396 nm	455 nm	64%	62%		> 10 µM	COc1ccc(/N=N/c2ccc(/C=C/C(=O)Nc3ccccc3N)cc2Cl)c(Cl)c1 [Compound 32e, (E)-N-(2-Aminophenyl)-3-(3-chloro-4-((E)-(2-chloro-4-methoxyphenyl)diazenyl)phenyl)acrylamide]	IC50 ([2]; continuous illumination 380 nm (Table 4), read-out: IC50 light): > 10 µM; IC50 [2, 20]: > 10 µM; IC50 [2, 15]: > 10 µM
		420 nm		430 nm	550 nm			>8.3		CN(C)c1cc(F)c(/N=N/c2c(F)cc(/C=C/C(=O)Nc3ccccc3N)cc2F)c(F)c1 [Compound 33a, (E)-N-(2-Aminophenyl)-3-(4-((E)-(4-(dimethylamino)-2,6-difluorophenyl)diazenyl)-3,5-difluorophenyl)acrylamide]	activity at the highest tested concentration in the dark ([2]; 10 μM, dark): no or little activity; IC50 under illumination, in words ([2]; continuous illumination): low micromolar range; activity under dark and illumination conditions [3]: inactive
		420 nm		412 nm	550 nm			>2	> 10 µM	CN(C)c1cc(Cl)c(/N=N/c2c(Cl)cc(/C=C/C(=O)Nc3ccccc3N)cc2Cl)c(Cl)c1 [Compound 33b, (E)-N-(2-Aminophenyl)-3-(3,5-dichloro-4-((E)-(2,6-dichloro-4-(dimethylamino)phenyl)diazenyl)phenyl)acrylamide]	activity under dark and illumination conditions [3]: inactive
		550 nm	452 nm	336 nm	455 nm	46%	84%			COc1cc(Cl)c(/N=N/c2c(Cl)cc(C(=O)Nc3ccccc3N)cc2Cl)c(Cl)c1 [Compound 38b, (E)-N-(2-Aminophenyl)-3,5-dichloro-4-((2,6-dichloro-4-methoxyphenyl)diazenyl)benzamide]	

Further lines, the compound ahead of its results:

SMILES	λcis (optimal wavelength trans to cis) [1]	λmax trans [1, 5]	λcis [1, 16]	λmax cis [1, 16]	λmax trans [1, 16]	λtrans [1, 16]	% cis at λcis [4, 17]	% trans at λtrans [4, 18]	IC50(dark)/IC50(light) ([2]; Table 4)	IC50 [2, 19]	other results
CN(C)c1ccc(/N=N/c2ccc(/C=C/C(=O)Nc3ccccc3N)cc2)cc1 [Compound 12, (E)-N-(2-Aminophenyl)-3-(4-((E)-(4-(dimethylamino)phenyl)diazenyl)phenyl)acrylamide]	470 nm	462 nm									
COc1ccc(/N=N/c2ccc(C(=O)NO)cc2)cc1 [Compound 17, (E)-N-Hydroxy-4-((4-methoxyphenyl)diazenyl)benzamide]	380 nm	360 nm									IC50(dark)/IC50(light) [2, 6]: 0.14; relative activity of cis and trans forms [2]: more active in the trans form than in the cis form; IC50 [2, 7]: 0.42 µM; IC50 [2, 8]: 2.9 µM; IC50 [3, 9]: ~25 µM; IC50 [3, 10]: ~25 µM; IC50 ([3]; supplementary CSV, read-out: HeLa MTS IC50 dark): 25 µM; IC50 [3, 11]: 25 µM; IC50(dark)/IC50(light) [3]: ≈1; λtrans (optimal wavelength cis to trans) [1]: 550 nm; % cis at λcis [4, 12]: 84%; % trans at λtrans [4, 13]: 92%
COc1ccc(/N=N/c2ccc(C(=O)Nc3ccccc3N)cc2)cc1 [Compound 18, (E)-N-(2-Aminophenyl)-4-((4-methoxyphenyl)diazenyl)benzamide]	380 nm	364 nm									IC50(dark)/IC50(light) [2, 6]: 6; IC50 [2, 7]: 1.2 µM; IC50 [2, 8]: 0.2 µM; IC50 [3, 10]: ~19 µM; IC50 [3, 11]: 19 µM; IC50(dark)/IC50(light) [3]: >5.3; λtrans (optimal wavelength cis to trans) [1]: 550 nm; % cis at λcis [4, 12]: 82%; % trans at λtrans [4, 13]: 79%
CN(C)c1ccc(/N=N/c2ccc(C(=O)NO)cc2)cc1 [Compound 19, (E)-4-((4-(Dimethylamino)phenyl)diazenyl)-N-hydroxybenzamide]		446 nm									
COc1ccc(/N=N/c2ccc(CCC(=O)Nc3ccccc3N)cc2)cc1 [Compound 21, (E)-N-(2-Aminophenyl)-3-(4-((4-methoxyphenyl)diazenyl)phenyl)propanamide]	380 nm	354 nm									IC50(dark)/IC50(light) [2, 6]: >2.9; relative activity of cis and trans forms [2]: active only in the cis form; IC50 [2, 7]: > 10 µM; IC50 [2, 8]: 3.4 µM; λtrans (optimal wavelength cis to trans) [1]: 550 nm; % cis at λcis [4, 12]: 87%; % trans at λtrans [4, 13]: 84%
COc1cc(F)c(/N=N/c2c(F)cc(/C=C/C(=O)NO)cc2F)c(F)c1 [Compound 39, (E)-3-(4-((E)-(2,6-Difluoro-4-methoxyphenyl)diazenyl)-3,5-difluorophenyl)-N-hydroxyacrylamide]			550 nm	438 nm	358 nm	455 nm	72%	83%	2.6	0.14 µM	IC50 [2, 14]: 0.054 µM; IC50 [3, 9]: 6.7 µM; IC50 ([3]; preillumination 550 nm, 48 h, read-out: IC50 light (concentration that reduces cell viability by half)): 13 µM; IC50(dark)/IC50(light) [3]: 0.52
